These results are taken from patent US9724347B2, “1-pyrazolyl-3-(4-((2-anilinopyrimidin-4-yl)oxy)napththalen-1-yl) ureas as P38 MAP knase inhibitors” (Respivert Ltd., priority 2011, dated 2017).

One series relates to d-U937 cells. Kind of series: Cell viability: MTT assay. The series is classed as cell-based, human. The conditions noted are these: 1 μg/mL. As for the experimental part: Differentiated U937 cells were pre-incubated with each test compound (final concentration 1 μg/mL or 10 μg/mL in 200 μL media indicated below) under two protocols: the first for 4 hr in 5% FCS RPMI1640 media and the second in 10% FCS RPMI1640 media for 24 h. The supernatant was replaced with new media (200 μL) and MTT stock solution (10 μL, 5 mg/mL) was added to each well. After incubation for 1 hr the media were removed, DMSO (200 μL) was added to each well and the plates were shaken lightly for 1 hr prior to reading the absorbance at 550 nm. The percentage loss of cell viability was calculated for each well relative to vehicle (0.5% DMSO) treatment. Consequently an apparent increase in cell viability for drug treatment relative to vehicle is tabulated as a negative percentage.
In general terms: Tetrazolium assays rely on reduction of a dye to a coloured formazan, in cell work by metabolically active cells.

Series [1] relates to ICAM-1 expression in BEAS2B cells. Kind of series: Poly I:C-induced ICAM-1 expression in BEAS2B cells. The conditions noted are these: Homo sapiens, BEAS-2B, read-out: PolyIC/ICAM1 IC50 (BEAS2B). It counts as cell-based, human. As for the experimental part:
Poly I:C was used in these studies as a simple, RNA virus mimic. Poly I:C-Oligofectamine mixture (1 μg/mL Poly I:C, ±2% Oligofectamine, 25 μL; Invivogen Ltd., San Diego, Calif., and Invitrogen, Carlsbad, Calif., respectively) was transfected into BEAS2B cells (human bronchial epithelial cells, ATCC). Cells were pre-incubated with final concentrations of test compounds for 2 hr and the level of ICAM-1 expression on the cell surface was determined by cell-based ELISA. At a time point 18 hr after poly I:C transfection, cells were fixed with 4% formaldehyde in PBS (100 μL) and then endogenous peroxidase was quenched by the addition of washing buffer (100 μL, 0.05% Tween in PBS: PBS-Tween) containing 0.1% sodium azide and 1% hydrogen peroxide. Cells were washed with wash-buffer (3×200 μL). and after blocking the wells with 5% milk in PBS-Tween (100 μL) for 1 hr, the cells were incubated with anti-human ICAM-1 antibody (50 μL; Cell Signaling Technology, Danvers, Mass.) in 1% BSA PBS overnight at 4° C.
The cells were washed with PBS-Tween (3×200 μL) and incubated with the secondary antibody (100 μL; HRP-conjugated anti-rabbit IgG, Dako Ltd., Glostrup, Denmark). The cells were then incubated with of substrate (50 μL) for 2-20 min, followed by the addition of stop solution (50 μL, 1N H2SO4). The ICAM-1 signal was detected by reading […] the absorbance at 450 nm against a reference wavelength of 655 nm using a spectrophotometer. The cells were then washed with PBS-Tween (3×200 μL) and total cell numbers in each well were determined by reading absorbance at 595 nm after Crystal Violet staining (50 μL of a 2% solution in PBS) and elution by 1% SDS solution (100 μL) in distilled water. The measured OD 450-655 readings were corrected for cell number by dividing with the OD595 reading in each well. The inhibition of ICAM-1 expression was calculated at each concentration of test compound by comparison with vehicle control.

Another series deals with p38MAPKγ (MAPK12) (Homo sapiens (Human), UniProt P53778). Kind of series: p38 MAPKγ enzyme inhibition (FRET, Z-LYTE). It counts as biochemical. As for the experimental part:
The enzyme inhibitory activities of compounds disclosed herein were determined by FRET using synthetic peptides labelled with both donor and acceptor fluorophores (Z-LYTE, Invitrogen Ltd., Paisley, UK). […] Development reagent (protease, 5 μL) was added for 1 hr prior to detection in a fluorescence microplate reader (Varioskan® Flash, Thermo Scientific). In all cases, the site-specific protease cleaves non-phosphorylated peptide only and eliminates the FRET signal. Phosphorylation levels of each reaction were calculated using the ratio of coumarin emission (donor) over fluorescein emission (acceptor), for which low ratios indicate high phosphorylation and high ratios indicate low phosphorylation levels.

The next series concerns the target GSK 3α enzyme isoform (Homo sapiens (Human), UniProt P49840). Kind of series: GSK 3α enzyme inhibition (FRET, Z-LYTE). It counts as biochemical. The conditions noted are these: read-out: IC50 Values for Enzyme Inhibition GSK3α. How it is done:
The enzyme inhibitory activities of compounds disclosed herein were determined by FRET using synthetic peptides labelled with both donor and acceptor fluorophores (Z-LYTE, Invitrogen Ltd., Paisley, UK).
The inhibitory activities of test compounds against the GSK 3α enzyme isoform (Invitrogen), were evaluated by determining the level of activation/phosphorylation of the target peptide.
The GSK3-α protein (500 ng/mL, 2.5 μL) was mixed with the test compound (2.5 μL at either 4 μg/mL, 0.4 μg/mL, 0.04 μg/mL, or 0.004 μg/mL) for 2 hr at RT. The FRET peptide (8 μM, 2.5 μL), which is a phosphorylation target for GSK3α, and ATP (40 μM, 2.5 μL) were then added to the enzyme/compound mixture and the resulting mixture incubated for 1 hr. Development reagent (protease, 5 μL) was added for 1 hr prior to detection in a fluorescence microplate reader (Varioskan® Flash, ThermoFisher Scientific).
In all cases, the site-specific protease cleaves non-phosphorylated peptide only and eliminates the FRET signal. Phosphorylation levels of each reaction were calculated using the ratio of coumarin emission (donor) over fluorescein emission (acceptor), for which low ratios indicate high phosphorylation and high ratios indicate low phosphorylation levels.

Series [2] addresses p38 MAPKα isoform (MAPK14) (Homo sapiens (Human), UniProt Q16539). Nature of the series: p38 MAPKα enzyme inhibition (FRET, Z-LYTE). The series is classed as biochemical. As for the experimental part: The enzyme inhibitory activities of compounds disclosed herein were determined by FRET using synthetic peptides labelled with both donor and acceptor fluorophores (Z-LYTE, Invitrogen Ltd., Paisley, UK). The inhibitory activities of test compounds against the p38 MAPKα isoform (MAPK14: Invitrogen), were evaluated indirectly by determining the level of activation/phosphorylation of the down-stream molecule, MAPKAP-K2. […] The mixture was incubated for 1 hr at RT. Development reagent (protease, 5 μL) was added for 1 hr prior to detection in a fluorescence microplate reader (Varioskan® Flash, ThermoFisher Scientific). In all cases, the site-specific protease cleaves non-phosphorylated peptide only and eliminates the FRET signal. Phosphorylation levels of each reaction were calculated using the ratio of coumarin emission (donor) over fluorescein emission (acceptor), for which low ratios indicate high phosphorylation and high ratios indicate low phosphorylation levels.

Each structure is given as a SMILES string. A value given as a limit tells only on which side of the number the result lay.

Sequence of p38MAPKγ (MAPK12) (P53778 whole entry): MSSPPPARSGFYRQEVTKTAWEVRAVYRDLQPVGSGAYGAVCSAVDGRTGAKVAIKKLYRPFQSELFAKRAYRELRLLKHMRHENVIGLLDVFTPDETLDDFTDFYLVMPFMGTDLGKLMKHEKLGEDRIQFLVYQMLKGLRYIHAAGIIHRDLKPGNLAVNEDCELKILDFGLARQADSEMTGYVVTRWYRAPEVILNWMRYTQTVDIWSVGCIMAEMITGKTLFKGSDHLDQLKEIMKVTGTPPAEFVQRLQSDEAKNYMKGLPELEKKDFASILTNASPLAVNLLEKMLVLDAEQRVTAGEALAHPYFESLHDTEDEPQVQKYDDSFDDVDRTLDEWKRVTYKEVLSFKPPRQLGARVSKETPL
Sequence of GSK 3α enzyme isoform (P49840 whole entry, canonical isoform): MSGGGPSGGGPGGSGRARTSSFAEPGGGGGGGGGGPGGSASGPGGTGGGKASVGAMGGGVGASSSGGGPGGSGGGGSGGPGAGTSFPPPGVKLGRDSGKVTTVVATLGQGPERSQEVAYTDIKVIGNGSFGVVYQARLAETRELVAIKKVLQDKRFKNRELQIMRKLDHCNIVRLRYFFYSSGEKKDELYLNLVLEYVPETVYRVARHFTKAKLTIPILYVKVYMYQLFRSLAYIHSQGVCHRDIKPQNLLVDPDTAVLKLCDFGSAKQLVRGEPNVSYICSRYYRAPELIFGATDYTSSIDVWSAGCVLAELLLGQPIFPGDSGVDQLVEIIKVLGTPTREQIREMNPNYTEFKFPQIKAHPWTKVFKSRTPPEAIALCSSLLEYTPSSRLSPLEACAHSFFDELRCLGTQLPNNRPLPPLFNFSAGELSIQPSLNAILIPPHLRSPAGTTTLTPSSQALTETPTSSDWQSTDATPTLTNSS
Sequence of p38 MAPKα isoform (MAPK14) (Q16539 whole entry, canonical isoform): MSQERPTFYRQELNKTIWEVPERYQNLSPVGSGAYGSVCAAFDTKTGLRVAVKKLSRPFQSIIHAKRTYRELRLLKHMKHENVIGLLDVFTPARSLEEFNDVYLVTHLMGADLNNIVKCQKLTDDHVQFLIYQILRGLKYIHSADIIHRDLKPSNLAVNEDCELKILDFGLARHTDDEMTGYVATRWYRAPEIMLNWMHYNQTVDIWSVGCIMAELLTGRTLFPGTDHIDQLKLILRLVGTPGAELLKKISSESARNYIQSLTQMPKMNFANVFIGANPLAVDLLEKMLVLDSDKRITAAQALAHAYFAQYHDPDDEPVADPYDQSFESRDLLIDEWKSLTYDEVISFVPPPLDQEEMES

Regarding `CC(C)(C)c1cc(NC(=O)Nc2ccc(Oc3ccnc(Nc4ccccc4)n3)c3ccccc23)n(-c2ccc(O)cc2)n1` [Example 3, 1-(3-(tert-butyl)-1-(4-hydroxyphenyl)-1H-pyrazol-5-yl)-3-(4-((2-(phenylamino)pyrimidin-4-yl)oxy)naphthalen-1-yl)urea], the “MTT Assay Cell viability at time point in d-U937 Cells” value (“MTT Assay Cell viability” for short) in the series on d-U937 cells (4 h) is “−ve (−ve and +ve indicate the value is below and above respectively, the no significant effect threshold defined as 30% inhibition at 1 μg/mL at the time point indicated)”; in the series on d-U937 cells (24 h), “−ve (−ve and +ve indicate the value is below and above respectively, the no significant effect threshold defined as 30% inhibition at 1 μg/mL at the time point indicated)”. Besides, the IC50 in series [1] came out at 4.1 nM; against p38MAPKγ (MAPK12) it was 1500 nM; at GSK 3α enzyme isoform, 2490 nM; in series [2] it was 173 nM.

For the molecule `Cc1ccc(-n2nc(C(C)(C)C)cc2NC(=O)Nc2ccc(Oc3ccnc(Nc4ccccc4F)n3)c3ccccc23)cc1` [Example 4, 1-(3-(tert-butyl)-1-(p-tolyl)-1H-pyrazol-5-yl)-3-(4-((2-((2-fluorophenyl)amino)pyrimidin-4-yl)oxy)naphthalen-1-yl)urea], the “MTT Assay Cell viability” value in the series on d-U937 cells (4 h) was “−ve (−ve and +ve indicate the value is below and above respectively, the no significant effect threshold defined as 30% inhibition at 1 μg/mL at the time point indicated)”; in the series on d-U937 cells (24 h), “−ve (−ve and +ve indicate the value is below and above respectively, the no significant effect threshold defined as 30% inhibition at 1 μg/mL at the time point indicated)”. Also, the IC50 is 144 nM in series [1], 8200 nM at p38MAPKγ (MAPK12), more than 16600 nM at GSK 3α enzyme isoform and 165 nM in series [2].

For the molecule `Cc1ccc(-n2nc(C(C)(C)C)cc2NC(=O)Nc2ccc(Oc3ccnc(Nc4cc(C)ccc4C)n3)c3ccccc23)cc1` [Example 10, 1-(3-(tert-butyl)-1-(p-tolyl)-1H-pyrazol-5-yl)-3-(4-((2-((2,5-dimethylphenyl)amino)pyrimidin-4-yl)oxy)naphthalen-1-yl)urea], the “MTT Assay Cell viability” value is “−ve (−ve and +ve indicate the value is below and above respectively, the no significant effect threshold defined as 30% inhibition at 1 μg/mL at the time point indicated)” in the series with d-U937 cells (4 h); “−ve (−ve and +ve indicate the value is below and above respectively, the no significant effect threshold defined as 30% inhibition at 1 μg/mL at the time point indicated)” in the series on d-U937 cells (24 h). Moreover, the IC50 in series [1] was 43 nM; on p38MAPKγ (MAPK12), more than 16300 nM; on GSK 3α enzyme isoform, more than 16300 nM; in series [2], 195 nM.

As to `Cc1ccc(Nc2nccc(Oc3ccc(NC(=O)Nc4cc(C(C)(C)C)nn4-c4ccc(C)cc4)c4ccccc34)n2)cc1` [Example 11, 1-(3-(tert-butyl)-1-(p-tolyl)-1H-pyrazol-5-yl)-3-(4-((2-(p-tolylamino)pyrimidin-4-yl)oxy)naphthalen-1-yl)urea], the “MTT Assay Cell viability” value in the series on d-U937 cells (4 h) is “−ve (−ve and +ve indicate the value is below and above respectively, the no significant effect threshold defined as 30% inhibition at 1 μg/mL at the time point indicated)”; with d-U937 cells (24 h), “−ve (−ve and +ve indicate the value is below and above respectively, the no significant effect threshold defined as 30% inhibition at 1 μg/mL at the time point indicated)”. Also, the IC50 was 11 nM in series [1], more than 16700 nM at p38MAPKγ (MAPK12), more than 16700 nM on GSK 3α enzyme isoform and 356 nM in series [2].

For `Cc1ccc(-n2nc(C(C)(C)C)cc2NC(=O)Nc2ccc(Oc3ccnc(Nc4cccc(C)c4)n3)c3ccccc23)cc1` [Example 12, 1-(3-(tert-butyl)-1-(p-tolyl)-lH-pyrazol-5-yl)-3-(4-((2-(m-tolylamino)pyrimidin-4-yl)oxy)naphthalen-1-yl)urea], the “MTT Assay Cell viability” value with d-U937 cells (4 h) is “−ve (−ve and +ve indicate the value is below and above respectively, the no significant effect threshold defined as 30% inhibition at 1 μg/mL at the time point indicated)”; with d-U937 cells (24 h) it was “−ve (−ve and +ve indicate the value is below and above respectively, the no significant effect threshold defined as 30% inhibition at 1 μg/mL at the time point indicated)”. The IC50 in series [1] was 2.7 nM; against p38MAPKγ (MAPK12) it was more than 16700 nM; on GSK 3α enzyme isoform, more than 16700 nM; in series [2], 169 nM.

Take `Cc1ccc(-n2nc(C(C)(C)C)cc2NC(=O)Nc2ccc(Oc3ccnc(Nc4cccc(Cl)c4)n3)c3ccccc23)cc1` [Example 13, 1-(3-(tert-butyl)-1-(p-tolyl)-1H-pyrazol-5-yl)-3-(4-((2-((3-chlorophenyl)amino)pyrimidin-4-yl)oxy)naphthalen-1-yl)urea]: the “MTT Assay Cell viability” value was “−ve (−ve and +ve indicate the value is below and above respectively, the no significant effect threshold defined as 30% inhibition at 1 μg/mL at the time point indicated)” in the series with d-U937 cells (4 h); “−ve (−ve and +ve indicate the value is below and above respectively, the no significant effect threshold defined as 30% inhibition at 1 μg/mL at the time point indicated)” in the series on d-U937 cells (24 h). The IC50 in series [1] is 3 nM; against p38MAPKγ (MAPK12) it was more than 16200 nM; on GSK 3α enzyme isoform, more than 16200 nM; in series [2], 262 nM.

Take `COc1cccc(Nc2nccc(Oc3ccc(NC(=O)Nc4cc(C(C)(C)C)nn4-c4ccc(C)cc4)c4ccccc34)n2)c1` [Example 14, 1-(3-(tert-butyl)-1-(p-tolyl)-1H-pyrazol-5-yl)-3-(4-((2-((3-methoxyphenyl)amino)pyrimidin-4-yl)oxy)naphthalen-1-yl)urea]: the “MTT Assay Cell viability” value is “−ve (−ve and +ve indicate the value is below and above respectively, the no significant effect threshold defined as 30% inhibition at 1 μg/mL at the time point indicated)” with d-U937 cells (4 h); “−ve (−ve and +ve indicate the value is below and above respectively, the no significant effect threshold defined as 30% inhibition at 1 μg/mL at the time point indicated)” in the series with d-U937 cells (24 h). Further, the IC50 in series [1] is 9.8 nM; against p38MAPKγ (MAPK12), more than 16300 nM; at GSK 3α enzyme isoform it was more than 16300 nM; in series [2], 119 nM.
